Results taken from US4650801A, “Anti-cancer compositions for delivering 5-fluorouracil” (Taiho Pharmaceutical Company, Ltd., priority 1978, dated 1987).

Experiment: in vivo
Conditions: mouse, in vivo, po
Description: The anti-cancer compositions of this invention are tested in mice by the following methods to determine acute toxicity, anti-cancer effect and therapeutic index
Male mice of ICR strain weighing 22±1 g are used, 5 mice in each group. A 5-fluorouracil (a) and uracil derivative (b) in the proportions listed in Tables 1-16 are suspended in a 5% solution of gum arabic to prepare a suspension, which is forcibly orally administered to each mouse through a tube at a dose of 1 ml/100 g. Over the following period of three weeks the mice are checked every day for poisoning, body weight and mortality. The LD50 is determined according to the up-and-down method 3 weeks after the administration.

O=c1[nH]cc(F)c(=O)n1C1CCCO1 (centres unmarked) [Compound 6, 3-(2-Tetrahydrofuryl)-5-fluorouracil]
LD50 at 504 h ((b) = 1(2-Tetrahydrofuryl)uracil, (b)/(a) mol ratio 1): 874 mg/kg
LD50 at 504 h ((b) = 1(2-Tetrahydrofuryl)uracil, (b)/(a) mol ratio 2): 650 mg/kg
LD50 at 504 h ((b) = 1(2-Tetrahydrofuryl)uracil, (b)/(a) mol ratio 5): 535 mg/kg
LD50 at 504 h ((b) = 1Acetyluracil, (b)/(a) mol ratio 1): 702 mg/kg
LD50 at 504 h ((b) = 1Acetyluracil, (b)/(a) mol ratio 2): 468 mg/kg
LD50 at 504 h ((b) = 1Acetyluracil, (b)/(a) mol ratio 5): 246 mg/kg
LD50 at 504 h ((b) = 1Cyclohexylcarbamoyluracil, (b)/(a) mol ratio 0.5): 833 mg/kg
LD50 at 504 h ((b) = 1Cyclohexylcarbamoyluracil, (b)/(a) mol ratio 5): 576 mg/kg
LD50 at 504 h ((b) = 1n-Hexylcarbamoyluracil, (b)/(a) mol ratio 1): 928 mg/kg
LD50 at 504 h ((b) = 1n-Hexylcarbamoyluracil, (b)/(a) mol ratio 2): 844 mg/kg
LD50 at 504 h ((b) = 1n-Hexylcarbamoyluracil, (b)/(a) mol ratio 10): 469 mg/kg
LD50 at 504 h ((b) = 2'-Deoxycytidine, (b)/(a) mol ratio 1): 928 mg/kg
LD50 at 504 h ((b) = 2'-Deoxycytidine, (b)/(a) mol ratio 2): 843 mg/kg
LD50 at 504 h ((b) = 2'-Deoxyuridine, (b)/(a) mol ratio 1): 845 mg/kg
LD50 at 504 h ((b) = 2'-Deoxyuridine, (b)/(a) mol ratio 2): 790 mg/kg
LD50 at 504 h ((b) = 2'-Deoxyuridine, (b)/(a) mol ratio 20): 525 mg/kg
LD50 at 504 h ((b) = 3Benzoyluracil, (b)/(a) mol ratio 1): 768 mg/kg
LD50 at 504 h ((b) = 3Benzoyluracil, (b)/(a) mol ratio 2): 663 mg/kg
LD50 at 504 h ((b) = 3Benzoyluracil, (b)/(a) mol ratio 10): 448 mg/kg
LD50 at 504 h ((b) = 5Bromo-2'-deoxyuridine, (b)/(a) mol ratio 0.5): 640 mg/kg
LD50 at 504 h ((b) = 5Bromo-2'-deoxyuridine, (b)/(a) mol ratio 2): 478 mg/kg
LD50 at 504 h ((b) = 5Bromo-2'-deoxyuridine, (b)/(a) mol ratio 10): 308 mg/kg
LD50 at 504 h ((b) = 5Bromouracil, (b)/(a) mol ratio 0.5): 745 mg/kg
LD50 at 504 h ((b) = 5Bromouracil, (b)/(a) mol ratio 2): 575 mg/kg
LD50 at 504 h ((b) = 5Bromouracil, (b)/(a) mol ratio 10): 412 mg/kg
LD50 at 504 h ((b) = 5Iodouracil, (b)/(a) mol ratio 1): 467 mg/kg
LD50 at 504 h ((b) = 5Iodouracil, (b)/(a) mol ratio 5): 194 mg/kg
LD50 at 504 h ((b) = Cytidine, (b)/(a) mol ratio 2): 928 mg/kg
LD50 at 504 h ((b) = Cytidine, (b)/(a) mol ratio 10): 773 mg/kg
LD50 at 504 h ((b) = Cytosine, (b)/(a) mol ratio 10): 639 mg/kg
LD50 at 504 h ((b) = Orotic acid, (b)/(a) mol ratio 2): 969 mg/kg
LD50 at 504 h ((b) = Orotic acid, (b)/(a) mol ratio 20): 806 mg/kg
LD50 at 504 h ((b) = Thymidine, (b)/(a) mol ratio 0.5): 963 mg/kg
LD50 at 504 h ((b) = Thymidine, (b)/(a) mol ratio 2): 886 mg/kg
LD50 at 504 h ((b) = Thymidine, (b)/(a) mol ratio 10): 639 mg/kg
LD50 at 504 h ((b) = Thymine, (b)/(a) mol ratio 0.5): 830 mg/kg
LD50 at 504 h ((b) = Thymine, (b)/(a) mol ratio 2): 537 mg/kg
LD50 at 504 h ((b) = Thymine, (b)/(a) mol ratio 10): 324 mg/kg
LD50 at 504 h ((b) = Uridine, (b)/(a) mol ratio 1): 945 mg/kg
LD50 at 504 h ((b) = Uridine, (b)/(a) mol ratio 2): 815 mg/kg
LD50 at 504 h ((b) = Uridine, (b)/(a) mol ratio 20): 597 mg/kg
